Here are results for two molecules from patent US20200115357A1, “LIVER X RECEPTORS (LXR) MODULATORS” (Phenex-FXR GmbH, priority 2017, published 2020).

What all share (format): in vivo
Data set [1] in a line: Short term HFD mouse model, plasma and liver exposure. The conditions noted are these: three oral doses of 20 mg/kg, HFD C57BL/6J mice; for Kp at 4 h: mouse, liver/plasma, read-out: liver/plasma ratio, 4 h; for liver exposure, 4 h / plasma exposure, 4 h: 4 h after final treatment. Here is the method:
(§1) Short Term HFD Mouse Model:
(§2) The in vivo transcriptional regulation of several LXR target genes by LXR modulators was assessed in mice.
For this, C57BL/6J were purchased from Elevage Janvier (Rennes, France) at the age of 8 weeks. After an acclimation period of two weeks, animals were preferred on a high fat diet (HFD) (Ssniff Spezialdiaten GmbH, Germany, Surwit EF D12330 mod, Cat. No. E15771-34), with 60 kcal % from fat plus 1% (w/w) extra cholesterol (Sigma-Aldrich, St. Louis, Mo.) for 5 days. Animals were maintained on this diet during treatment with LXR modulators. The test compounds were formulated in 0.5% hydroxypropylmethylcellulose (HPMC) and administered in three doses (20 mg/kg each) by oral gavage according to the following schedule: on day one, animals received treatment in the morning and the evening (ca. 17:00), on day two animals received the final treatment in the morning after a 4 h fast and were sacrificed 4 h thereafter. Animal work was conducted according to the national guidelines for animal care in Germany.
Upon termination, liver was collected, dipped in ice cold PBS for 30 seconds and cut into appropriate pieces. Pieces were snap frozen in liquid nitrogen and stored at −80° C. For the clinical chemistry analysis from plasma, alanine aminotransferase (ALT, IU/mL), cholesterol (CHOL, mg/dL) and triglycerides (TG, mg/dL) were determined using a fully-automated bench top analyzer (Respons®910, DiaSys Greiner GmbH, Flacht, Germany) with system kits provided by the manufacturer.

In the next data set the test system is Fasn. Briefly: Short term HFD mouse model, gene expression in liver tissue: Fasn. The note with it: liver mRNA (qPCR, normalized to Tbp), three oral doses of 20 mg/kg, HFD mice. Here is the method:
as §1, §2
(§3) For this, C57BL/6J were purchased from Elevage Janvier (Rennes, France) at the age of 8 weeks. After an acclimation period of two weeks, animals were preferred on a high fat diet (HFD) (Ssniff Spezialdiaten GmbH, Germany, Surwit EF D12330 mod, Cat. No. E15771-34), with 60 kcal % from fat plus 1% (w/w) extra cholesterol (Sigma-Aldrich, St. Louis, Mo.) for 5 days. Animals were maintained on this diet during treatment with LXR modulators. […]
(§4) Upon termination, liver was collected, dipped in ice cold PBS for 30 seconds and cut into appropriate pieces. […] For the clinical chemistry analysis from plasma, alanine aminotransferase (ALT, IU/mL), cholesterol (CHOL, mg/dL) and triglycerides (TG, mg/dL) were determined using a fully-automated bench top analyzer (Respons®910, DiaSys Greiner GmbH, Flacht, Germany) with system kits provided by the manufacturer. […]
(§5) To obtain total RNA from frozen liver tissue, samples (25 mg liver tissue) were first homogenized with RLA buffer (4M guanidin thiocyanate, 10 mM Tris, 0.97% w:v β-mercapto-ethanol). […] Quantitative PCR was performed and analyzed using Prime time Gene expression master mix (Integrated DNA Technologies, Coralville, Iowa, USA) and a 384-format ABI 7900HT Sequence Detection System (Applied Biosystems, Foster City, USA). […]

Another data set concerns Scd1. Briefly: Short term HFD mouse model, gene expression in liver tissue: Scd1. The note with it: liver mRNA (qPCR, normalized to Tbp), three oral doses of 20 mg/kg, HFD mice. Here is the method:
as §1, §2, §3, §4, §5
On the technique in general: In qPCR the cycle at which signal appears reflects the starting amount.

The subject of another data set is Hepatic LXR target genes. The data set can be described thus: Short term HFD mouse model, hepatic LXR target genes (summary in words). The note with it: multiple oral dosing in mice. Here is the method: as §1, §2, §3
To obtain total RNA from frozen liver tissue, samples (25 mg liver tissue) were first homogenized with RLA buffer (4M guanidin thiocyanate, 10 mM Tris, 0.97% w:v β-mercapto-ethanol). […] Quantitative PCR was performed and analyzed using Prime time Gene expression master mix (Integrated DNA Technologies, Coralville, Iowa, USA) and a 384-format ABI 7900HT Sequence Detection System (Applied Biosystems, Foster City, USA). The expression of the following genes was analysed: Stearoyl-CoA desaturase1 (Scd1), fatty acid synthase (Fas) and sterol regulatory element-binding protein1 (Srebp1). […]

For `Cc1ccc2ccccc2c1S(=O)(=O)N(Cc1ccc(-c2cccc(C(C)(C)C(=O)O)c2)cc1)Cc1ccc(C(F)(F)F)o1` [Example 24, 2-Methyl-2-(4′-(((2-methyl-N-((5-(trifluoromethyl)furan-2-yl)methyl)naphthalene)-1-sulfonamido)methyl)-[1,1′-biphenyl]-3-yl)propanoic acid], in data set [1], the Kp at 4 h came to 52.4; the “liver exposure, 4 h” value turned out to be 5.359 µM; the “plasma exposure, 4 h” value was found to be 102 nM. Also, the “Fasn suppression compared to vehicle” value in the data set with Fasn was 0.23. Further, the “Scd1 suppression compared to vehicle” value in the data set on Scd1 was found to be 0.25. Also, the “Hepatic LXR target genes (in words)” value with Hepatic LXR target genes was “effectively suppressed”.
With `Cc1cc(C)c(S(=O)(=O)N(Cc2ccc(C(F)(F)F)o2)Cc2ccc(-c3cccc(C(C)(C)C(=O)O)c3)cc2Cl)c(C)c1` [10/5], in data set [1], the Kp at 4 h is 33.3; the “liver exposure, 4 h” value worked out at 4.372 µM; the “plasma exposure, 4 h” value is 131 nM. Moreover, the “Fasn suppression compared to vehicle” value in the data set with Fasn is given as 0.41. In addition, the “Scd1 suppression compared to vehicle” value in the data set on Scd1 turned out to be 0.38. Also, the “Hepatic LXR target genes (in words)” value with Hepatic LXR target genes is listed as “effectively suppressed”.
